pIC50, pKi: −log10 of the molar value. Marks after values point to notes of the source that are not given here.
Columns and labels:
hSERT [1] = molecular target: T1, hSERT (Homo sapiens, UniProt P31645); experiment: fluorescence-based serotonin reuptake inhibition assay (Tsuruda et al. 2010; data indicated by an asterisk); format: cell-based; parameters: expressed in transfected cells; host or cells: HEK-293; settings: fluorescence-based assay (values with asterisk); for IC50: read-out: SERT pIC50 (converted)
T1 sequence (P31645 whole entry): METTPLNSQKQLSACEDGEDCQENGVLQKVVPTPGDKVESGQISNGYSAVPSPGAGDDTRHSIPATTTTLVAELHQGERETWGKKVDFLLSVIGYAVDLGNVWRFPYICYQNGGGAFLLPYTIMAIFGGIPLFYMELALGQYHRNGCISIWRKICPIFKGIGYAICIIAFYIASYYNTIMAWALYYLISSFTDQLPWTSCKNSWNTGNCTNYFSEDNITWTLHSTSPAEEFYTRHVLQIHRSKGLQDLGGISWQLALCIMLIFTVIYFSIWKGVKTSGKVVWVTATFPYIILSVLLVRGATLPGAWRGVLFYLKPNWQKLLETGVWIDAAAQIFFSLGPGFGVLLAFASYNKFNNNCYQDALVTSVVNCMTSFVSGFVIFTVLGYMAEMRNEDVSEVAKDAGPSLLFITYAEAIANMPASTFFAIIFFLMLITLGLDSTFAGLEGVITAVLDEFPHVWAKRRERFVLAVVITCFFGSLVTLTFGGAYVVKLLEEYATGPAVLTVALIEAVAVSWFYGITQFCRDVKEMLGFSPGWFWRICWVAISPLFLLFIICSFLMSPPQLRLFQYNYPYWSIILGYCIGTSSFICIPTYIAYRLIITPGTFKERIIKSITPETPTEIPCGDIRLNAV

hNET [2] = molecular target: T2, hNET (Homo sapiens, UniProt P23975); experiment: fluorescence-based norepinephrine reuptake inhibition assay (Tsuruda et al. 2010; data indicated by an asterisk); format: cell-based; parameters: expressed in transfected cells; host or cells: HEK-293; settings: fluorescence-based assay (values with asterisk); for IC50: norepinephrine reuptake inhibition, read-out: NET pIC50 (converted)
T2 sequence (P23975 whole entry): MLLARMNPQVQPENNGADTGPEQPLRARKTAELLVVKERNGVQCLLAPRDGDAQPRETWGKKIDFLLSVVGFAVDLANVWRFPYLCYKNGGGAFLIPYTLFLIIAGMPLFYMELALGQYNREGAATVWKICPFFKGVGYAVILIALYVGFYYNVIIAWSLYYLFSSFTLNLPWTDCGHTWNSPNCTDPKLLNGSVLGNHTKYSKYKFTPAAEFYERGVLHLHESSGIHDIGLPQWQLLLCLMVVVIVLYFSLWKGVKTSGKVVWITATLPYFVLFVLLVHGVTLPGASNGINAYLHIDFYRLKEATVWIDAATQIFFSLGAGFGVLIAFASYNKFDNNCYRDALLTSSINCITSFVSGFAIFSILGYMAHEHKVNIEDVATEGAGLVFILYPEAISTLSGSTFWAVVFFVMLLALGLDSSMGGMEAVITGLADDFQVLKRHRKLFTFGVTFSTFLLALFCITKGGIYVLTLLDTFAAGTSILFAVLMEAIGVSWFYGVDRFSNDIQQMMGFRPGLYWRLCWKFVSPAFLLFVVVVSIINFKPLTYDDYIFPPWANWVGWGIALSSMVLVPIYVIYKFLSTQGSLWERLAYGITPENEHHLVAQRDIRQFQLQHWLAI

hSERT [3] = molecular target: T1, hSERT; experiment: hSERT membrane radioligand binding assay (3H-citalopram), Assay 1; settings: SERT pKi, hSERT HEK-293 membranes, 1.0 nM 3H-citalopram; values given as lower bounds
hNET [4] = molecular target: T2, hNET; experiment: hNET membrane radioligand binding assay (3H-nisoxetine), Assay 1
hNET [5] = molecular target: T2, hNET; experiment: hNET neurotransmitter uptake assay (3H-NE), Assay 2; format: cell-based; parameters: expressed in transfected cells; host or cells: HEK-293; settings: norepinephrine reuptake inhibition, 3H-NE uptake, HEK-293 hNET cells (values without asterisk); read-out: NET pIC50 (converted)
hSERT [6] = molecular target: T1, hSERT; experiment: hSERT neurotransmitter uptake assay (3H-5-HT), Assay 2; format: cell-based; parameters: expressed in transfected cells; host or cells: HEK-293; settings: serotonin reuptake inhibition, 3H-5-HT uptake, HEK-293 hSERT cells (values without asterisk); read-out: SERT pIC50 (converted)

SMILES | IC50 (hSERT [1]) | IC50 (hNET [2]) | SERT pIC50 (hSERT [1]) | pIC50 (hNET [2]; NET pIC50, norepinephrine reuptake inhibition) | pKi (hSERT [3]) | pKi (hNET [4]) | IC50 (hNET [5]) | IC50 (hSERT [6])
Cc1ccc(OC(C2CCCC2)C2CCNC2)c(Cl)c1 (mixture of isomers) [Example 17, 3-[(2-Chloro-4-methylphenoxy)cyclopentylmethyl]pyrrolidine] | ≤ 10 nM | ≤ 10 nM |  |  |  |  |  | 
CC[C@@H](Oc1ccc(Cl)cc1)[C@H]1CCNC1 [Example 2-4, (S)-3-[(R)-1-(4-Chlorophenoxy)propyl]pyrrolidine] | ≤ 10 nM | ≤ 100 nM |  |  |  |  |  | 
CC[C@@H](Oc1ccc(Cl)c(F)c1)[C@H]1CCNC1 [Example 2-6, (S)-3-[(R)-1-(4-Chloro-3-fluorophenoxy)propyl]pyrrolidine] | ≤ 10 nM | ≤ 100 nM |  |  |  |  |  | 
CC[C@@H](Oc1ccc(Cl)c(Cl)c1)[C@H]1CCNC1 [Example 2-8, (S)-3-[(R)-1-(3,4-Dichlorophenoxy)propyl]pyrrolidine] | ≤ 10 nM | ≤ 100 nM |  |  |  |  |  | 
CC[C@H](Oc1cc(F)cc(Cl)c1)[C@H]1CCNC1 [Example 2-10, (S)-3-[(S)-1-(3-Chloro-5-fluorophenoxy)propyl]pyrrolidine] | ≤ 100 nM | ≤ 10 nM |  |  |  |  |  | 
CC[C@@H](Oc1cc(F)cc(Cl)c1)[C@H]1CCNC1 [Example 2-11, (S)-3-[(R)-1-(3-Chloro-5-fluorophenoxy)propyl]pyrrolidine] | ≤ 100 nM | ≤ 10 nM |  |  |  |  |  | 
CC[C@@H](Oc1ccc(Cl)c(C)c1)[C@H]1CCNC1 [Example 2-14, (S)-3-[(R)-1-(4-Chloro-3-methylphenoxy)propyl]pyrrolidine] | ≤ 10 nM | ≤ 100 nM |  |  |  |  |  | 
CC[C@H](Oc1cc(C)c(Cl)c(C)c1)[C@H]1CCNC1 [Example 2-15, (S)-3-[(S)-1-(4-Chloro-3,5-dimethylphenoxy)propyl]pyrrolidine] | ≤ 10 nM | ≤ 100 nM |  |  |  |  |  | 
CC[C@H](Oc1cc(Cl)cc(OC)c1)[C@H]1CCNC1 [Example 2-20, (S)-3-[(S)-1-(3-Chloro-5-methoxyphenoxy)propyl]pyrrolidine] | ≤ 100 nM | ≤ 100 nM |  |  |  |  |  | 
CC[C@@H](Oc1ccccc1Cl)[C@H]1CCNC1 [Example 2-24, (S)-3-[(R)-1-(2-Chlorophenoxy)propyl]pyrrolidine] | ≤ 100 nM | ≤ 100 nM |  |  |  |  |  | 
CC[C@@H](Oc1cccc(Cl)c1Cl)[C@H]1CCNC1 [Example 2-31, (S)-3-[(R)-1-(2,3-Dichlorophenoxy)propyl]pyrrolidine] | ≤ 10 nM | ≤ 10 nM |  |  |  |  |  | 
CC[C@@H](Oc1ccc(Cl)cc1Cl)[C@H]1CCNC1 [Example 2-34, (S)-3-[(R)-1-(2,4-Dichlorophenoxy)propyl]pyrrolidine] | ≤ 10 nM |  |  | ≥ 7.00 |  |  |  | 
CC[C@H](Oc1c(F)cc(Cl)cc1Cl)[C@H]1CCNC1 [Example 2-35, (S)-3-[(S)-1-(2,4-Dichloro-6-fluorophenoxy)propyl]pyrrolidine] | ≤ 10 nM | ≤ 10 nM |  |  |  |  |  | 
CC[C@@H](Oc1c(F)ccc(OC)c1Cl)[C@H]1CCNC1 [Example 2-45, (S)-3-[(R)-1-(2-Chloro-6-fluoro-3-methoxyphenoxy)propyl]pyrrolidine] | ≤ 10 nM | ≤ 10 nM |  |  |  |  |  | 
CC[C@H](Oc1ccc(C)c(F)c1F)[C@H]1CCNC1 [Example 2-51, (S)-3-[(S)-1-(2,3-Difluoro-4-methylphenoxy)propyl]pyrrolidine] | ≤ 10 nM | ≤ 10 nM |  |  |  |  |  | 
Clc1cccc(Cl)c1O[C@@H](C1CCCCC1)[C@H]1CCNC1 [Example 19, (S)-3-[(S)-Cyclohexyl-(2,6-dichlorophenoxy)methyl]pyrrolidine] |  |  |  |  | ≥ 8.00 | ≥ 8.00 | ≤ 10 nM | ≤ 100 nM
C=CC[C@H](Oc1cccc(Cl)c1C)[C@H]1CCNC1 [Example 24, (S)-3-[(S)-1-(3-Chloro-2-methylphenoxy)but-3-enyl]-pyrrolidine] |  |  |  |  | ≥ 8.00 | ≥ 8.00 | ≤ 10 nM | ≤ 10 nM
C#CC(Oc1c(Cl)ccc(Cl)c1Cl)[C@H]1CCNC1 (stereo partly drawn) [Example 26, (S)-3-[1(2,3,6-Trichlorophenoxy)prop-2-ynyl]pyrrolidine] |  |  |  |  | ≥ 8.00 | ≥ 8.00 | ≤ 10 nM | ≤ 100 nM

More lines, now with the values ahead:

IC50 (hSERT [1]) | IC50 (hNET [2]) | SERT pIC50 (hSERT [1]) | pIC50 (hNET [2]; NET pIC50, norepinephrine reuptake inhibition) | pKi (hSERT [3]) | pKi (hNET [4]) | IC50 (hNET [5]) | IC50 (hSERT [6]) | SMILES
≤ 10 nM | ≤ 100 nM |  |  |  |  |  |  | FC(F)(F)c1c(Cl)cccc1OC(C1CCCC1)C1CCNC1 (single isomer, unassigned) [Example 18-2, 3-[(3-Chloro-2-trifluoromethylphenoxy)cyclopentylmethyl]pyrrolidine]
≤ 100 nM | ≤ 10 nM |  |  |  |  |  |  | FC(F)(F)c1c(Cl)cccc1OC(C1CCCC1)C1CCNC1 (single isomer, unassigned) [Example 18-3, 3-[(3-Chloro-2-trifluoromethylphenoxy)cyclopentylmethyl]pyrrolidine]
≤ 10 nM | ≤ 100 nM |  |  |  |  |  |  | Clc1ccc(OC(C2CCCC2)C2CCNC2)c(Cl)c1 (single isomer, unassigned) [Example 18-4, 3-[Cyclopentyl-(2,4-dichlorophenoxy)methyl]pyrrolidine]
 | ≤ 10 nM | ≧8.0* |  |  |  |  |  | Clc1ccc(OC(C2CCCC2)C2CCNC2)c(Cl)c1 (single isomer, unassigned) [Example 18-5, 3-[Cyclopentyl-(2,4-dichlorophenoxy)methyl]pyrrolidine]
≤ 100 nM |  |  |  | ≥ 8.00 | ≥ 5.50 |  |  | Cc1cc(O[C@H](C2CC2)[C@H]2CCNC2)c(Cl)cc1Cl [Example 16-73, (S)-3-[(R)cyclopropyl-(2,4-dichloro-5-methylphenoxy)methyl]pyrrolidine]
 |  |  |  | ≥ 8.00 | ≥ 8.00 | ≤ 10 nM | ≤ 100 nM | CCc1cc(F)cc(F)c1O[C@@H](C1CC1)[C@H]1CCNC1 [Example 16-81, (S)-3-[(S)cyclopropyl-(2-ethyl-4,6-difluorophenoxy)-methyl]pyrrolidine]
 |  |  |  | ≥ 8.00 | ≥ 8.00 | ≤ 10 nM | ≤ 100 nM | CSc1cccc(O[C@@H](C2CC2)[C@H]2CCNC2)c1 [Example 16-86, (S)-3-[(S)cyclopropyl-(3-methylsulfanylphenoxy)methyl]pyrrolidine]
 |  |  |  | ≥ 8.00 | ≥ 8.00 | ≤ 100 nM | ≤ 100 nM | Fc1ccc(O[C@@H](C2CC2)[C@H]2CCNC2)cc1Cl [Example 16-89, (S)-3-[(S)-(3-Chloro-4-fluorophenoxy)cyclopropylmethyl]pyrrolidine]
 |  |  |  | ≥ 8.00 | ≥ 8.00 | ≤ 10 nM | ≤ 10 nM | Fc1cc(O[C@H](C2CC2)[C@H]2CCNC2)ccc1Cl [Example 16-91, (S)-3-[(R)-(4-Chloro-3-fluorophenoxy)cyclopropylmethyl]pyrrolidine]
 |  |  |  | ≥ 8.00 | ≥ 8.00 | ≤ 10 nM | ≤ 10 nM | Fc1cc(O[C@@H](C2CC2)[C@H]2CCNC2)ccc1Cl [Example 16-93, (S)-3-[(S)-(4-Chloro-3-fluorophenoxy)cyclopropylmethyl]pyrrolidine]
 |  |  |  | ≥ 8.00 | ≥ 8.00 | ≤ 10 nM | ≤ 10 nM | Clc1cc(Cl)cc(O[C@@H](C2CC2)[C@H]2CCNC2)c1 [Example 16-96, (S)-3-[(S)cyclopropyl-(3,5-dichlorophenoxy)methyl]pyrrolidine]
 |  |  |  | ≥ 8.00 | ≥ 8.00 | ≤ 10 nM | ≤ 10 nM | Clc1cc(Cl)cc(O[C@H](C2CC2)[C@H]2CCNC2)c1 [Example 16-97, (S)-3-[(R)cyclopropyl-(3,5-dichlorophenoxy)methyl]pyrrolidine]
 |  |  |  | ≥ 8.00 | ≥ 8.00 | ≤ 10 nM | ≤ 100 nM | Fc1cc(Cl)cc(O[C@@H](C2CC2)[C@H]2CCNC2)c1 [Example 16-98, (S)-3-[(S)-(3-Chloro-5-fluorophenoxy)cyclopropylmethyl]pyrrolidine]
 |  |  |  | ≥ 8.00 | ≥ 8.00 | ≤ 10 nM | ≤ 100 nM | Fc1cc(Cl)cc(O[C@H](C2CC2)[C@H]2CCNC2)c1 [Example 16-99, (S)-3-[(R)-(3-Chloro-5-fluorophenoxy)cyclopropylmethyl]pyrrolidine]
 |  |  |  | ≥ 8.00 | ≥ 8.00 | ≤ 10 nM | ≤ 10 nM | Clc1ccc(O[C@@H](C2CC2)[C@H]2CCNC2)cc1 [Example 16-103, (S)-3-[(S)-(4-Chlorophenoxy)cyclopropylmethyl]pyrrolidine]
 |  |  |  | ≥ 8.00 | ≥ 8.00 | ≤ 10 nM | ≤ 10 nM | Fc1cccc(O[C@H](C2CCCCC2)[C@H]2CCNC2)c1Cl [Example 20-5, (S)-3-[(R)-(2-Chloro-3-fluorophenoxy)cyclohexylmethyl]pyrrolidine]
 |  |  |  | ≥ 8.00 | ≥ 8.00 | ≤ 10 nM | ≤ 10 nM | C=CC[C@H](Oc1ccc(Cl)cc1)[C@H]1CCNC1 [Example 25-1, (S)-3-[(S)-1-(4-Chlorophenoxy)but-3-enyl]pyrrolidine]
 |  |  |  | ≥ 8.00 | ≥ 8.00 | ≤ 10 nM | ≤ 100 nM | C#CC(Oc1cccc(Cl)c1Cl)[C@H]1CCNC1 (stereo partly drawn) [Example 27-1, (S)-3-[1-(2,3-Dichlorophenoxy)prop-2-ynyl]pyrrolidine]

Reference: patent US7994209B2, “3-phenoxymethylpyrrolidine compounds” (Theravance, Inc., priority 2009, dated 2011)
